From patent US9682995B2, “Amino-substituted isothiazoles” (BAYER PHARMA AKTIENGESELLSCHAFT, priority 2013, dated 2017)
pIC50: −log10 of the molar value.

Legend:
[1] = molecular target: human Bub1 (Homo sapiens (Human), UniProt O43683); test: Bub1 kinase assay (TR-FRET); type: biochemical; settings: 10 μM ATP; read-out: Bub1 avg (IC50 [mol/l])
Text: Bub1-inhibitory activity of compounds of the present invention was quantified employing the Bub1 TR-FRET assay as described in the following paragraphs.
N-terminally His6-tagged recombinant catalytic domain of human Bub1 (amino acids 704-1085), expressed in insect cells (Hi5) and purified by Ni-NTA affinity chromatography and subsequent size exclusion chromatography, was used as enzyme. As substrate for the kinase reaction the biotinylated peptide biotin-Ahx-VLLPKKSFAEPG (C-terminus in amid form) was used which can be purchased e.g. form the company Biosyntan (Berlin, Germany).
For the assay 50 nl of a 100 fold concentrated solution of the test compound in DMSO was pipetted into a black low volume 384 well microtiter plate (Greiner Bio-One, Frickenhausen, Germany), 2 μl of a solution of Bub1 in aqueous assay buffer [50 mM Tris/HCl pH 7.5, 10 mM magnesium chloride (MgCl2), 200 mM potassium chloride (KCl), 1.0 mM dithiothreitol (DTT), 0.1 mM sodium ortho-vanadate, 1% (v/v) glycerol, 0.01% (w/v) bovine serum albumine (BSA), 0.005% (v/v) Trition X-100 (Sigma), 1× Complete EDTA-free protease inhibitor mixture (Roche)] were added and the mixture was incubated for 15 min at 22° C. to allow pre-binding of the test compounds to the enzyme before the start of the kinase reaction. Then the kinase reaction was started by the addition of 3 μl of a solution of adenosine-tri-phosphate (ATP, 16.7 μM=>final conc. in the 5 μl assay volume is 10 μM) and substrate (1.67 μM=>final conc. in the 5 μl assay volume is 1 μM) in assay buffer and the resulting mixture was incubated for a reaction time of 60 min at 22° C. The concentration of Bub1 was adjusted depending of the activity of the enzyme lot and was chosen appropriate to have the assay in the linear range, typical concentrations were in the range of 200 ng/ml. The reaction was stopped by the addition of 5 μl of a solution of TR-FRET detection reagents (0.2 μM streptavidine-XL665 [Cisbio Bioassays, Codolet, France] and 1 nM anti-phosho-Serine antibody [Merck Millipore, cat. #35-001] and 0.4 nM LANCE EU-W1024 labeled anti-mouse IgG antibody [Perkin-Elmer, product no. AD0077, as an alternative a Terbium-cryptate-labeled anti-mouse IgG antibody from Cisbio Bioassays can be used]) in an aqueous EDTA-solution (50 mM EDTA, 0.2% (w/v) bovine serum albumin in 100 mM HEPES pH 7.5).
(§1) The resulting mixture was incubated 1 h at 22° C. to allow the formation of complex between the phosphorylated biotinylated peptide and the detection reagents. Subsequently the amount of phosphorylated substrate was evaluated by measurement of the resonance energy transfer from the Eu-chelate to the streptavidine-XL. Therefore, the fluorescence emissions at 620 nm and 665 nm after excitation at 350 nm was measured in a TR-FRET reader, e.g. a Rubystar or Pherastar (both from BMG Labtechnologies, Offenburg, Germany) or a Viewlux (Perkin-Elmer). The ratio of the emissions at 665 nm and at […] was taken as the measure for the amount of phosphorylated substrate. The data were normalised (enzyme reaction without inhibitor=0% inhibition, all other assay components but no enzyme=100% inhibition).

[2] = molecular target: CDK2/CycE (Homo sapiens (Human), UniProt P24941); test: CDK2/CycE kinase assay (TR-FRET); type: biochemical; settings: 10 μM ATP; read-out: CDK2 avg (IC50 [mol/l])
Text: CDK2/CycE-inhibitory activity of compounds of the present invention was quantified employing the CDK2/CycE TR-FRET assay as described in the following paragraphs.
Recombinant fusion proteins of GST and human CDK2 and of GST and human CycE, expressed in insect cells (Sf9) and purified by Glutathion-Sepharose affinity chromatography, were purchased from ProQinase GmbH (Freiburg, Germany). As substrate for the kinase reaction biotinylated peptide biotin-Ttds-YISPLKSPYKISEG (C-terminus in amid form) was used which can be purchased e.g. form the company JERINI peptide technologies (Berlin, Germany).
For the assay 50 nl of a 100 fold concentrated solution of the test compound in DMSO was pipetted into a black low volume 384 well microtiter plate (Greiner Bio-One, Frickenhausen, Germany), 2 μl of a solution of CDK2/CycE in aqueous assay buffer [50 mM Tris/HCl pH 8.0, 10 mM MgCl2, 1.0 mM dithiothreitol, 0.1 mM sodium ortho-vanadate, 0.01% (v/v) Nonidet-P40 (Sigma)] were added and the mixture was incubated for 15 min at 22° C. to allow pre-binding of the test compounds to the enzyme before the start of the kinase reaction. Then the kinase reaction was started by the addition of 3 μl of a solution of adenosine-tri-phosphate (ATP, 16.7 μM=>final conc. in the 5 μl assay volume is 10 μM) and substrate (1.25 μM=>final conc. in the 5 μl assay volume is 0.75 μM) in assay buffer and the resulting mixture was incubated for a reaction time of 25 min at 22° C. The concentration of CDK2/CycE was adjusted depending of the activity of the enzyme lot and was chosen appropriate to have the assay in the linear range, typical concentrations were in the range of 130 ng/ml. The reaction was stopped by the addition of 5 μl of a solution of TR-FRET detection reagents (0.2 μM streptavidine-XL665 [Cisbio Bioassays, Codolet, France] and 1 nM anti-RB(pSer807/pSer811)-antibody from BD Pharmingen [#558389] and 1.2 nM LANCE EU-W1024 labeled anti-mouse IgG antibody [Perkin-Elmer, product no. AD0077, as an alternative a Terbium-cryptate-labeled anti-mouse IgG antibody from Cisbio Bioassays can be used]) in an aqueous EDTA-solution (100 mM EDTA, 0.2% (w/v) bovine serum albumin in 100 mM HEPES/NaOH pH 7.0).
as §1, with “(BMG” for “or Pherastar (both from BMG”

Sequence of human Bub1 (O43683 704-1085): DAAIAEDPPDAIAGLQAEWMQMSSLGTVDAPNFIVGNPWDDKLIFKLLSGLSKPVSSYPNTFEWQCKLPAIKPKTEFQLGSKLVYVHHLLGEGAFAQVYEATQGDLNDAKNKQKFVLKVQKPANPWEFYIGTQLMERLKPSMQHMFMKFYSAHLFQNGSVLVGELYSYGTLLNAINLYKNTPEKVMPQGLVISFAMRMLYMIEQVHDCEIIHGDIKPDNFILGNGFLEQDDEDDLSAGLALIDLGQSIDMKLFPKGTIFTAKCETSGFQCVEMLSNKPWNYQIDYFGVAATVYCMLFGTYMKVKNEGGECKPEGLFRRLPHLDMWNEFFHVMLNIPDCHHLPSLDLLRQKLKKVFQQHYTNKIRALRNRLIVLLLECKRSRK

Structure (SMILES) | pIC50 [1] | pIC50 [2]
CCc1ccccc1NC(=O)c1c(C)nsc1Nc1ncccc1C#N [Example 8, 5-[(3-Cyanopyridin-2-yl)amino]-N-(2-ethylphenyl)-3-methyl-1,2-thiazole-4-carboxamide] | < 4.70 | < 4.70
Cc1nsc(Nc2ccn3nccc3n2)c1C(=O)Nc1ccc(F)c(F)c1 [Example 57, N-(3,4-Difluorophenyl)-3-methyl-5-(pyrazolo[1,5-a]pyrimidin-5-ylamino)-1,2-thiazole-4-carboxamide] | < 4.70 | < 4.70
CCc1ccccc1NC(=O)c1c(C)nsc1Nc1cnc2ccc(Cl)cc2n1 [Example 41, 5-[(7-Chloroquinoxalin-2-yl)amino]-N-(2-ethylphenyl)-3-methyl-1,2-thiazole-4-carboxamide] | < 4.70 | < 4.70
Cc1nsc(Nc2cnc3cc(F)ccc3n2)c1C(=O)Nc1ccc(F)c(F)c1 [Example 46, N-(3,4-Difluorophenyl)-5-[(6-fluoroquinoxalin-2-yl)amino]-3-methyl-1,2-thiazole-4-carboxamide] | < 4.70 | < 4.70
COc1ccc(Oc2ccc(NC(=O)c3c(C)nsc3Nc3cc(C#N)ccn3)cn2)cc1 [Example 117, 5-[(4-Cyanopyridin-2-yl)amino]-N-[6-(4-methoxyphenoxy)pyridin-3-yl]-3-methyl-1,2-thiazole-4-carboxamide] | < 4.70 | < 4.70
CCc1ccccc1NC(=O)c1c(C)nsc1Nc1cc(NC)ncn1 [Example 15, N-(2-Ethylphenyl)-3-methyl-5-{[6-(methylamino)pyrimidin-4-yl]amino}-1,2-thiazole-4-carboxamide] | < 4.70 | < 4.70
CCc1ccccc1NC(=O)c1c(C)nsc1Nc1nccnc1C#N [Example 34, 5-[(3-Cyanopyrazin-2-yl)amino]-N-(2-ethylphenyl)-3-methyl-1,2-thiazole-4-carboxamide] | < 4.70 | < 4.70
Cc1nsc(Nc2cnc3ccccc3n2)c1C(=O)Nc1ccc(Oc2ccccc2)nc1 [Example 112, 3-Methyl-N-(6-phenoxypyridin-3-yl)-5-(quinoxalin-2-ylamino)-1,2-thiazole-4-carboxamide] | < 4.70 | < 4.70
CCc1ccccc1NC(=O)c1c(C)nsc1Nc1ncnc2sccc12 [Example 12, N-(2-Ethylphenyl)-3-methyl-5-(thieno[2,3-d]pyrimidin-4-ylamino)-1,2-thiazole-4-carboxamide] | < 4.70 | < 4.70
CCc1ccccc1NC(=O)c1c(C)nsc1Nc1ccc(C#N)cn1 [Example 7, 5-[(5-Cyanopyridin-2-yl)amino]-N-(2-ethylphenyl)-3-methyl-1,2-thiazole-4-carboxamide] | < 4.70 | < 4.70
Cc1nsc(Nc2cnccn2)c1C(=O)Nc1ccc(Cl)c(F)c1 [Example 56, N-(4-Chloro-3-fluorophenyl)-3-methyl-5-(pyrazin-2-ylamino)-1,2-thiazole-4-carboxamide] | < 4.70 | < 4.70
Cc1nsc(Nc2ccc(C#N)cn2)c1C(=O)Nc1ccc(Cl)c(F)c1 [Example 52, N-(4-Chloro-3-fluorophenyl)-5-[(5-cyanopyridin-2-yl)amino]-3-methyl-1,2-thiazole-4-carboxamide] | < 4.70 | < 4.70
COc1ccc(NC(=O)c2c(C)nsc2Nc2ncccc2C#N)cn1 [Example 36, 5-[(3-Cyanopyridin-2-yl)amino]-N-(6-methoxypyridin-3-yl)-3-methyl-1,2-thiazole-4-carboxamide] |  | < 4.70
Cc1nsc(Nc2cc(C#N)ccn2)c1C(=O)Nc1ccc(Oc2ccc(F)cc2F)nc1 [Example 114, 5-[(4-Cyanopyridin-2-yl)amino]-N-[6-(2,4-difluorophenoxy)pyridin-3-yl]-3-methyl-1,2-thiazole-4-carboxamide] |  | < 4.70

Further lines, results first:

pIC50 [1] | pIC50 [2] | Structure (SMILES)
< 4.70 | < 4.70 | COC(=O)c1cnc(Nc2snc(C)c2C(=O)Nc2ccc(OC)nc2)cn1 [Example 32, Methyl 5-({4-[(6-methoxypyridin-3-yl)carbamoyl]-3-methyl-1,2-thiazol-5-yl}amino)-pyrazine-2-carboxylate]
< 4.70 | < 4.70 | Cc1nsc(Nc2cnc(C(=O)N(C)C)cn2)c1C(=O)Nc1ccc(F)c(F)c1 [Example 109, 5-({4-[(3,4-Difluorophenyl)carbamoyl]-3-methyl-1,2-thiazol-5-yl}amino)-N,N-dimethylpyrazine-2-carboxamide]
< 4.70 | < 4.70 | Cc1nsc(Nc2cc(C#N)ccn2)c1C(=O)Nc1ccc(Oc2ccccc2)nc1 [Example 111, 5-[(4-Cyanopyridin-2-yl)amino]-3-methyl-N-(6-phenoxypyridin-3-yl)-1,2-thiazole-4-carboxamide]
< 4.70 | < 4.70 | Cc1nsc(Nc2cncc(N(C)C)n2)c1C(=O)Nc1ccc(F)c(F)c1 [Example 105, N-(3,4-Difluorophenyl)-5-{[6-(dimethylamino)pyrazin-2-yl]amino}-3-methyl-1,2-thiazole-4-carboxamide]
< 4.70 | < 4.70 | CCc1ccnc(Nc2snc(C)c2C(=O)Nc2ccccc2CC)n1 [Example 17, N-(2-Ethylphenyl)-5-[(4-ethylpyrimidin-2-yl)amino]-3-methyl-1,2-thiazole-4-carboxamide]
< 4.70 | < 4.70 | CCc1ccccc1NC(=O)c1c(C)nsc1Nc1nccc(OC)n1 [Example 16, N-(2-Ethylphenyl)-5-[(4-methoxypyrimidin-2-yl)amino]-3-methyl-1,2-thiazole-4-carboxamide]
< 4.70 | < 4.70 | COc1ncc(NC(=O)c2c(C)nsc2Nc2cnc3ccccc3n2)cc1C [Example 121, N-(6-Methoxy-5-methylpyridin-3-yl)-3-methyl-5-(quinoxalin-2-ylamino)-1,2-thiazole-4-carboxamide]
